Measurements published in PubChem BioAssay AID1963845 (Molecular Pharmacology Branch, DTP, NCI, 2024).

Tested on: 429239-143-T-J1-PDC complex spheroid viability
Assay: Anticancer human tumor 429239-143-T-J1-PDC patient-derived small cell lung carcinoma cell line growth inhibition [POLQ]
Details: for IC50: curve of first compound; for viability, T/C: stronger effect = lower value
Outline: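 Growth inhibition in 3D: complex spheroids (tumor PDC, HUVEC, MSC) treated with POLQ inhibitor combinations; where Cmax unknown, highest tested concentration 10 microM, except SN-38 at 1 microM.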

[1] = second compound 0.0316 µM, first compound 0.00316 µM
[2] = second compound 0.0316 µM, first compound 0.01 µM
[3] = second compound 0.0316 µM, first compound 0.0316 µM
[4] = second compound 0.0316 µM, first compound 0.1 µM
[5] = second compound 0.1 µM, first compound 0.00316 µM
[6] = second compound 0.1 µM, first compound 0.01 µM
[7] = second compound 0.1 µM, first compound 0.0316 µM
[8] = second compound 0.1 µM, first compound 0.1 µM
[9] = second compound 0.316 µM, first compound 0.00316 µM
[10] = second compound 0.316 µM, first compound 0.01 µM
[11] = second compound 0.316 µM, first compound 0.0316 µM
[12] = second compound 0.316 µM, first compound 0.1 µM
[13] = second compound 1 µM, first compound 0.00316 µM
[14] = second compound 1 µM, first compound 0.01 µM
[15] = second compound 1 µM, first compound 0.0316 µM
[16] = second compound 1 µM, first compound 0.1 µM
[17] = second compound 3.16 µM, first compound 0.00316 µM
[18] = second compound 3.16 µM, first compound 0.01 µM
[19] = second compound 3.16 µM, first compound 0.0316 µM
[20] = second compound 3.16 µM, first compound 0.1 µM
[21] = second compound 10 µM, first compound 0.00316 µM
[22] = second compound 10 µM, first compound 0.01 µM
[23] = second compound 10 µM, first compound 0.0316 µM
[24] = second compound 10 µM, first compound 0.1 µM
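Also: luminescence signal used as surrogate measure of viable cells; spheroids exposed to compounds for seven days before readout.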
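For viability, T/C in this document: 100% = DMSO vehicle control viability as luminescence relative to vehicle.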

## COc1cccc(OCCCN)c1-c1cc(Nc2cnc(C#N)cn2)n[nH]1 + Nc1ccc(C#CCN(C(=O)Cc2ncc(C(F)(F)F)cc2C(F)(F)F)c2ccc(F)cc2)nn1
Second compound 0.0316 µM
  IC50: 0.398 µM
Second compound 0.1 µM
  IC50: 0.305 µM
Second compound 0.316 µM
  IC50: 0.219 µM
Second compound 1 µM
  IC50: 0.224 µM
Second compound 3.16 µM
  IC50: 0.234 µM
Second compound 10 µM
  IC50: 0.16 µM
[1]
  viability, T/C: 91.8%
[2]
  viability, T/C: 94.8%
[3]
  viability, T/C: 87.6%
[4]
  viability, T/C: 72.7%
Second compound 0.0316 µM, first compound 0.316 µM
  viability, T/C: 55.2%
Second compound 0.0316 µM, first compound 1 µM
  viability, T/C: 33.3%
[5]
  viability, T/C: 95.1%
[6]
  viability, T/C: 97.2%
[7]
  viability, T/C: 83.1%
[8]
  viability, T/C: 71.3%
Second compound 0.1 µM, first compound 0.316 µM
  viability, T/C: 49.4%
Second compound 0.1 µM, first compound 1 µM
  viability, T/C: 28.7%
[9]
  viability, T/C: 103%
[10]
  viability, T/C: 98.9%
[11]
  viability, T/C: 98.7%
[12]
  viability, T/C: 65.3%
Second compound 0.316 µM, first compound 0.316 µM
  viability, T/C: 45.4%
Second compound 0.316 µM, first compound 1 µM
  viability, T/C: 33.6%
[13]
  viability, T/C: 102%
[14]
  viability, T/C: 90.2%
[15]
  viability, T/C: 83.8%
[16]
  viability, T/C: 68.8%
Second compound 1 µM, first compound 0.316 µM
  viability, T/C: 40.3%
Second compound 1 µM, first compound 1 µM
  viability, T/C: 27.1%
[17]
  viability, T/C: 105%
[18]
  viability, T/C: 89.1%
[19]
  viability, T/C: 90.6%
[20]
  viability, T/C: 74.5%
Second compound 3.16 µM, first compound 0.316 µM
  viability, T/C: 40.3%
Second compound 3.16 µM, first compound 1 µM
  viability, T/C: 24.5%
[21]
  viability, T/C: 102%
[22]
  viability, T/C: 86.5%
[23]
  viability, T/C: 75.7%
[24]
  viability, T/C: 60%
Second compound 10 µM, first compound 0.316 µM
  viability, T/C: 36.2%
Second compound 10 µM, first compound 1 µM
  viability, T/C: 26.1%

## Cn1ncnc1[C@H]1c2n[nH]c(=O)c3cc(F)cc(c23)N[C@@H]1c1ccc(F)cc1 + Nc1ccc(C#CCN(C(=O)Cc2ncc(C(F)(F)F)cc2C(F)(F)F)c2ccc(F)cc2)nn1
Second compound 0.0316 µM
  IC50: > 0.1 µM
Second compound 0.1 µM
  IC50: > 0.1 µM
Second compound 0.316 µM
  IC50: > 0.1 µM
Second compound 1 µM
  IC50: > 0.1 µM
Second compound 3.16 µM
  IC50: > 0.1 µM
Second compound 10 µM
  IC50: > 0.1 µM
Second compound 0.0316 µM, first compound 0.000316 µM
  viability, T/C: 101%
Second compound 0.0316 µM, first compound 0.001 µM
  viability, T/C: 104%
[1]
  viability, T/C: 89.8%
[2]
  viability, T/C: 83.4%
[3]
  viability, T/C: 83.1%
[4]
  viability, T/C: 60.8%
Second compound 0.1 µM, first compound 0.000316 µM
  viability, T/C: 101%
Second compound 0.1 µM, first compound 0.001 µM
  viability, T/C: 104%
[5]
  viability, T/C: 95.3%
[6]
  viability, T/C: 83.1%
[7]
  viability, T/C: 84.7%
[8]
  viability, T/C: 60.4%
Second compound 0.316 µM, first compound 0.000316 µM
  viability, T/C: 104%
Second compound 0.316 µM, first compound 0.001 µM
  viability, T/C: 101%
[9]
  viability, T/C: 93.7%
[10]
  viability, T/C: 83.8%
[11]
  viability, T/C: 79.8%
[12]
  viability, T/C: 67.1%
Second compound 1 µM, first compound 0.000316 µM
  viability, T/C: 111%
Second compound 1 µM, first compound 0.001 µM
  viability, T/C: 112%
[13]
  viability, T/C: 95.1%
[14]
  viability, T/C: 87.8%
[15]
  viability, T/C: 81.7%
[16]
  viability, T/C: 58%
Second compound 3.16 µM, first compound 0.000316 µM
  viability, T/C: 106%
Second compound 3.16 µM, first compound 0.001 µM
  viability, T/C: 91.4%
[17]
  viability, T/C: 94.2%
[18]
  viability, T/C: 95.2%
[19]
  viability, T/C: 75.8%
[20]
  viability, T/C: 69.8%
Second compound 10 µM, first compound 0.000316 µM
  viability, T/C: 108%
Second compound 10 µM, first compound 0.001 µM
  viability, T/C: 91.7%
[21]
  viability, T/C: 101%
[22]
  viability, T/C: 87.9%
[23]
  viability, T/C: 74.2%
[24]
  viability, T/C: 60.2%
